Measurements as given in US4138491A, “Method for treating diabetes” (Daiichi Seiyaku Co., Ltd., priority 1976, dated 1979).

Test system: serum lactate level
Assay: Influence on serum lactate level, repeated administration for 4 days
Assay type: in vivo, normal rat
Description: The biguanide drugs heretofore used as a treatment for diabetes are said undesirably to cause acidosis due to an increase of serum lactate level when such drugs are repeatedly administered. The compounds of the present invention were repeatedly administered for 4 days to normal rats and the serum lactate level was determined every day to compare such with the administration of phenformine which is one example of a biguanide drug.
Compound A was repeatedly administered for 4 days to normal rats in a dosage of 200 mg/kg/day, and blood was sampled with the passage of time in order to determine the serum lactate level.

Which “Serum Lactate Level, 0 Day” value (0 Day, Compound A 200 mg/kg/day (phenformin dose not given)) does the source give for [H]/N=C(/N)N/C(=N/[H])NCCc1ccccc1 [Phenformin] here?
Its value is 1.061±0.099 μ mol/ml.

And the “Serum Lactate Level, After 1 Day” value (After 1 Day, Compound A 200 mg/kg/day (phenformin dose not given))?
The value was 2.086±0.066 μ mol/ml.

And the “Serum Lactate Level, After 4 Days” value (After 4 Days, Compound A 200 mg/kg/day (phenformin dose not given))?
Its value is 3.009±0.641 μ mol/ml.

And the “increase in serum lactate level” value (repeated administration for 4 days, normal rats, in words)?
The value was “remarkable increase in serum lactate level”.
